Data on three compounds can be found in ChEMBL document CHEMBL5303573, “Mapping human microbiome drug metabolism by gut bacteria and their genes” (Nature, 2019).

SMILES strings stand for the structures.

Test system in one data set: not listed separately
The data set is described as follows: The drug is tested on the gut metagenome community of MV21 with ENA study accession number: PRJEB31790 and ENA sample accession number: SAMEA5537502 for biotransformation. The drug concentrations were measured over 9 timepoints collected between 0 and 24 hours of incubation by liquid-chromatography-coupled mass spectrometry (LC–MS). It is filed as ADME. Also on record: dose 2 uM, timepoint 0, 1, 2, 4, 6, 8, 12, 18, 24 hours. The following applies: 2 µM.
Take `COc1ccc([C@@H]2Sc3ccccc3N(CCN(C)C)C(=O)[C@@H]2OC(C)=O)cc1` [DILTIAZEM]: the “Bacterial Biotransformation” value was “Compound NOT metabolized”.

Test system in another data set: not listed separately
Description: The drug is tested on the gut metagenome community of MV13 with ENA study accession number: PRJEB31790 and ENA sample accession number: SAMEA5537494 for biotransformation. The drug concentrations were measured over 9 timepoints collected between 0 and 24 hours of incubation by liquid-chromatography-coupled mass spectrometry (LC–MS). It counts as ADME. Details: dose 2 uM, timepoint 0, 1, 2, 4, 6, 8, 12, 18, 24 hours. The following applies: 2 µM.
As for `COc1ccc([C@@H]2Sc3ccccc3N(CCN(C)C)C(=O)[C@@H]2OC(C)=O)cc1` [DILTIAZEM], the “Bacterial Biotransformation” value is recorded as “Compound NOT metabolized”.

Test system in a further data set: not listed separately
The data set is described as follows: The drug is tested on the gut metagenome community of MV10 with ENA study accession number: PRJEB31790 and ENA sample accession number: SAMEA5537491 for biotransformation. The drug concentrations were measured over 9 timepoints collected between 0 and 24 hours of incubation by liquid-chromatography-coupled mass spectrometry (LC–MS). The following applies: 2 µM. It counts as ADME. Details: dose 2 uM, timepoint 0, 1, 2, 4, 6, 8, 12, 18, 24 hours.
Turning to `COc1ccc([C@@H]2Sc3ccccc3N(CCN(C)C)C(=O)[C@@H]2OC(C)=O)cc1` [DILTIAZEM], the “Bacterial Biotransformation” value is “Compound NOT metabolized”.

Test system in another data set: not listed separately
The data set is described as follows: The drug is tested on the gut metagenome community of MV14 with ENA study accession number: PRJEB31790 and ENA sample accession number: SAMEA5537495 for biotransformation. The drug concentrations were measured over 9 timepoints collected between 0 and 24 hours of incubation by liquid-chromatography-coupled mass spectrometry (LC–MS). It is filed as ADME. Details: dose 2 uM, timepoint 0, 1, 2, 4, 6, 8, 12, 18, 24 hours. The following applies: 2 µM.
On to `COc1ccc([C@@H]2Sc3ccccc3N(CCN(C)C)C(=O)[C@@H]2OC(C)=O)cc1` [DILTIAZEM], for which the “Bacterial Biotransformation” value is recorded as “Compound NOT metabolized”.

Test system in the next data set: not listed separately
The data set is described as follows: The drug is tested on the gut metagenome community of MV26 with ENA study accession number: PRJEB31790 and ENA sample accession number: SAMEA5537507 for biotransformation. The drug concentrations were measured over 9 timepoints collected between 0 and 24 hours of incubation by liquid-chromatography-coupled mass spectrometry (LC–MS). It counts as ADME. Details: dose 2 uM, timepoint 0, 1, 2, 4, 6, 8, 12, 18, 24 hours. The following applies: 2 µM.
Regarding `COc1ccc([C@@H]2Sc3ccccc3N(CCN(C)C)C(=O)[C@@H]2OC(C)=O)cc1` [DILTIAZEM], the “Bacterial Biotransformation” value was “Compound NOT metabolized”.

Test system in a further data set: not listed separately
The data set is described as follows: The drug is tested on the gut metagenome community of MV16 with ENA study accession number: PRJEB31790 and ENA sample accession number: SAMEA5537497 for biotransformation. The drug concentrations were measured over 9 timepoints collected between 0 and 24 hours of incubation by liquid-chromatography-coupled mass spectrometry (LC–MS). It counts as ADME. Also on record: dose 2 uM, timepoint 0, 1, 2, 4, 6, 8, 12, 18, 24 hours. The following applies: 2 µM.
Take `COc1ccc([C@@H]2Sc3ccccc3N(CCN(C)C)C(=O)[C@@H]2OC(C)=O)cc1` [DILTIAZEM]: the “Bacterial Biotransformation” value is “Compound NOT metabolized”.

The next data set has as its target T1, GDSL-like protein (Collinsella aerofaciens, UniProt A4E7D0).
T1 sequence (A4E7D0 whole entry): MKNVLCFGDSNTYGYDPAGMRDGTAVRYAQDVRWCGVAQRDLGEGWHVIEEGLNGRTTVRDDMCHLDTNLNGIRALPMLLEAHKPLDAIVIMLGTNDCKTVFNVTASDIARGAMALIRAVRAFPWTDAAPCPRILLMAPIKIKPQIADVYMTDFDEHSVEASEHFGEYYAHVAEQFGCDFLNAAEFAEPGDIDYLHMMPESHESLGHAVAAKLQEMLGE
The data set is described as follows: (§1) The drug is tested on Collinsella aerofaciens strain: ATCC25986 for biotransformation. The drug concentrations were measured before and after a 12-h incubation by liquid-chromatography-coupled mass spectrometry (LC–MS). It counts as ADME. Also on record: dose 2 uM. The following applies: 2 µM.
As to `C#C[C@]1(O)CC[C@H]2[C@@H]3CCC4=CC(=O)CC[C@@H]4[C@H]3CC[C@@]21CC` [LEVONORGESTREL], the “Bacterial Biotransformation” value was “Compound NOT metabolized”.
For the compound `COc1ccc([C@@H]2Sc3ccccc3N(CCN(C)C)C(=O)[C@@H]2OC(C)=O)cc1` [DILTIAZEM], the “Bacterial Biotransformation” value is recorded as “Compound NOT metabolized”.
On to `CC(=O)OCC(=O)[C@@]1(OC(C)=O)[C@@H](C)C[C@H]2[C@@H]3C[C@H](F)C4=CC(=O)C=C[C@]4(C)[C@@]3(F)[C@@H](O)C[C@@]21C` [DIFLORASONE DIACETATE], for which the “Bacterial Biotransformation” value is reported as “Compound NOT metabolized”.

A further data set addresses T2, Pyridine nucleotide-disulfide oxidoreductase (Collinsella aerofaciens, UniProt A4EBM5).
T2 sequence (A4EBM5 whole entry): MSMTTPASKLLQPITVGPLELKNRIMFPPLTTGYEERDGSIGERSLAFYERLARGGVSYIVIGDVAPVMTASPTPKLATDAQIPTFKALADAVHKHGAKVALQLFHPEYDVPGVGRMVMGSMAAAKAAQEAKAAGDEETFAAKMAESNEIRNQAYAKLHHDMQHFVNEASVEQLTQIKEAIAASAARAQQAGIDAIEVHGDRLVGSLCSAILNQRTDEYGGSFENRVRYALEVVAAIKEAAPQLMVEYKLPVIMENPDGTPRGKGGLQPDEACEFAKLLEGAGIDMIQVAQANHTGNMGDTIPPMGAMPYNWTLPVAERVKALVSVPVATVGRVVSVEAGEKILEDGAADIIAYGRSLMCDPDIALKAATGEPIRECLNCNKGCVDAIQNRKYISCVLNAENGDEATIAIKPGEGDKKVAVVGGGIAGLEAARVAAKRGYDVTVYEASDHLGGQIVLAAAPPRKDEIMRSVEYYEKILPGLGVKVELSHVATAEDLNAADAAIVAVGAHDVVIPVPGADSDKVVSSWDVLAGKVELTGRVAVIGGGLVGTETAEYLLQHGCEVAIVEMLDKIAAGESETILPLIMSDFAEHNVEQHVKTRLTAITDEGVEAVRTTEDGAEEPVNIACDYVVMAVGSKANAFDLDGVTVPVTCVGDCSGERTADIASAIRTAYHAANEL
The description is as §1. It is filed as ADME. Also on record: dose 2 uM. The following applies: 2 µM.
Turning to `C#C[C@]1(O)CC[C@H]2[C@@H]3CCC4=CC(=O)CC[C@@H]4[C@H]3CC[C@@]21CC` [LEVONORGESTREL], the “Bacterial Biotransformation” value is reported as “Compound NOT metabolized”.
Same read-out and setting: the value for `COc1ccc([C@@H]2Sc3ccccc3N(CCN(C)C)C(=O)[C@@H]2OC(C)=O)cc1` [DILTIAZEM] was “Compound NOT metabolized”; that for `CC(=O)OCC(=O)[C@@]1(OC(C)=O)[C@@H](C)C[C@H]2[C@@H]3C[C@H](F)C4=CC(=O)C=C[C@]4(C)[C@@]3(F)[C@@H](O)C[C@@]21C` [DIFLORASONE DIACETATE] was “Compound NOT metabolized”.

In the next data set the target is T3, GDSL-like protein (Collinsella aerofaciens, UniProt A4E8S4).
T3 sequence (A4E8S4 whole entry): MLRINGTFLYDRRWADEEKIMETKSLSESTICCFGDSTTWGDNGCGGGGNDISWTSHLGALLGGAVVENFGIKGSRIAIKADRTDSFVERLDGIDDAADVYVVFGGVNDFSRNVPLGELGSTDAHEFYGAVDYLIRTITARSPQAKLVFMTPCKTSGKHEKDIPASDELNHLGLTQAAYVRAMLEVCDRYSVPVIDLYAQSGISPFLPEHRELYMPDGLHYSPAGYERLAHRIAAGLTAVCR
Described as §1. The following applies: 2 µM. It is filed as ADME. Also on record: dose 2 uM.
For `C#C[C@]1(O)CC[C@H]2[C@@H]3CCC4=CC(=O)CC[C@@H]4[C@H]3CC[C@@]21CC` [LEVONORGESTREL], the “Bacterial Biotransformation” value was “Compound NOT metabolized”.
On to `COc1ccc([C@@H]2Sc3ccccc3N(CCN(C)C)C(=O)[C@@H]2OC(C)=O)cc1` [DILTIAZEM], for which the “Bacterial Biotransformation” value is reported as “Compound NOT metabolized”.
For the compound `CC(=O)OCC(=O)[C@@]1(OC(C)=O)[C@@H](C)C[C@H]2[C@@H]3C[C@H](F)C4=CC(=O)C=C[C@]4(C)[C@@]3(F)[C@@H](O)C[C@@]21C` [DIFLORASONE DIACETATE], the “Bacterial Biotransformation” value is “Compound metabolized”.

Another data set has as its target T4, Diguanylate cyclase (Collinsella aerofaciens, UniProt A4EB91).
T4 sequence (A4EB91 whole entry): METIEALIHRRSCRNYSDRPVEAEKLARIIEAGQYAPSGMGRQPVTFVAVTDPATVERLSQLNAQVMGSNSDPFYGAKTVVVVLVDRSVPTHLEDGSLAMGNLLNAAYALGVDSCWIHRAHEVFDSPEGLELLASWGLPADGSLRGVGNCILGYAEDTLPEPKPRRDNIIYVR
Described as §1. It is filed as ADME. Details: dose 2 uM. The following applies: 2 µM.
Regarding `C#C[C@]1(O)CC[C@H]2[C@@H]3CCC4=CC(=O)CC[C@@H]4[C@H]3CC[C@@]21CC` [LEVONORGESTREL], the “Bacterial Biotransformation” value is on record as “Compound NOT metabolized”.
Still for that read-out and setting: to `COc1ccc([C@@H]2Sc3ccccc3N(CCN(C)C)C(=O)[C@@H]2OC(C)=O)cc1` [DILTIAZEM] belongs “Compound NOT metabolized”; to `CC(=O)OCC(=O)[C@@]1(OC(C)=O)[C@@H](C)C[C@H]2[C@@H]3C[C@H](F)C4=CC(=O)C=C[C@]4(C)[C@@]3(F)[C@@H](O)C[C@@]21C` [DIFLORASONE DIACETATE], “Compound NOT metabolized”.

A further data set deals with T5, Flavodoxin (Collinsella aerofaciens, UniProt A4ED08).
T5 sequence (A4ED08 whole entry): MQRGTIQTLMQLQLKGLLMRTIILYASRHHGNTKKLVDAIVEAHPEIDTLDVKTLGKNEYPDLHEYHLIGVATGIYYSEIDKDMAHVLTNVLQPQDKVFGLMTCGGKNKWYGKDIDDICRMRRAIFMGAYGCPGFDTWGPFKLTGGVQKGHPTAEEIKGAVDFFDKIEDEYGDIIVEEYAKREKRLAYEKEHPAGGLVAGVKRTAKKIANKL
The description is as §1. Also on record: dose 2 uM. The following applies: 2 µM. It is filed as ADME.
In the case of `C#C[C@]1(O)CC[C@H]2[C@@H]3CCC4=CC(=O)CC[C@@H]4[C@H]3CC[C@@]21CC` [LEVONORGESTREL], the “Bacterial Biotransformation” value was “Compound NOT metabolized”.
`COc1ccc([C@@H]2Sc3ccccc3N(CCN(C)C)C(=O)[C@@H]2OC(C)=O)cc1` [DILTIAZEM]: the “Bacterial Biotransformation” value was “Compound NOT metabolized”.
As to `CC(=O)OCC(=O)[C@@]1(OC(C)=O)[C@@H](C)C[C@H]2[C@@H]3C[C@H](F)C4=CC(=O)C=C[C@]4(C)[C@@]3(F)[C@@H](O)C[C@@]21C` [DIFLORASONE DIACETATE], the “Bacterial Biotransformation” value was “Compound NOT metabolized”.

Test system in another data set: not listed separately
The data set is described as follows: The drug is tested on the gut metagenome community of MV03 with ENA study accession number: PRJEB31790 and ENA sample accession number: SAMEA5537484 for biotransformation. The drug concentrations were measured over 9 timepoints collected between 0 and 24 hours of incubation by liquid-chromatography-coupled mass spectrometry (LC–MS). It is filed as ADME. Also on record: dose 2 uM, timepoint 0, 1, 2, 4, 6, 8, 12, 18, 24 hours. The following applies: 2 µM.
Consider `COc1ccc([C@@H]2Sc3ccccc3N(CCN(C)C)C(=O)[C@@H]2OC(C)=O)cc1` [DILTIAZEM], for which the “Bacterial Biotransformation” value is recorded as “Compound NOT metabolized”.

Test system in the next data set: not listed separately
The data set is described as follows: The drug is tested on the gut metagenome community of MV11 with ENA study accession number: PRJEB31790 and ENA sample accession number: SAMEA5537492 for biotransformation. The drug concentrations were measured over 9 timepoints collected between 0 and 24 hours of incubation by liquid-chromatography-coupled mass spectrometry (LC–MS). It is filed as ADME. Also on record: dose 2 uM, timepoint 0, 1, 2, 4, 6, 8, 12, 18, 24 hours. The following applies: 2 µM.
Regarding `COc1ccc([C@@H]2Sc3ccccc3N(CCN(C)C)C(=O)[C@@H]2OC(C)=O)cc1` [DILTIAZEM], the “Bacterial Biotransformation” value is reported as “Compound NOT metabolized”.
